3 compounds from ChEMBL document CHEMBL1147134, “Indium-labeled macrocyclic conjugates of naltrindole: high-affinity radioligands for in vivo studies of peripheral delta opioid receptors” (J Med Chem, 2007) can be followed below.

The target in data set [1] is Kappa-type opioid receptor (Cavia porcellus, UniProt P41144). As to the kind of experiment: Displacement of [3H]U-69593 from kappa opioid receptor in guinea pig brain membranes. The class given is cell membranes, Membrane.
The nature of data set [2]: Lipophilicity, log D at pH7.4. The data set is classed as physicochemical. The settings on record: buffer, pH 7.4.
In the next data set the target is Mu-type opioid receptor (Cavia porcellus, UniProt P97266). Briefly: Displacement of [3H]DAMGO from mu opioid receptor in guinea pig brain membranes. The data set is classed as cell membranes, Membrane.
For data set [3], the target named is Delta-type opioid receptor (Mus musculus, UniProt P32300). As to the kind of experiment: Displacement of [3H]NTI from delta opioid receptor in CD1 mouse brain membranes. The data set is classed as cell membranes, Membrane.
Data set [4] in a line: Selectivity for mouse brain delta opioid receptor over guinea pig brain mu opioid receptor.
A short description of data set [5]: Selectivity for mouse brain delta opioid receptor over guinea pig brain kappa opioid receptor.

pKi: −log10 of the molar value.

Sequence of Kappa-type opioid receptor (P41144 whole entry): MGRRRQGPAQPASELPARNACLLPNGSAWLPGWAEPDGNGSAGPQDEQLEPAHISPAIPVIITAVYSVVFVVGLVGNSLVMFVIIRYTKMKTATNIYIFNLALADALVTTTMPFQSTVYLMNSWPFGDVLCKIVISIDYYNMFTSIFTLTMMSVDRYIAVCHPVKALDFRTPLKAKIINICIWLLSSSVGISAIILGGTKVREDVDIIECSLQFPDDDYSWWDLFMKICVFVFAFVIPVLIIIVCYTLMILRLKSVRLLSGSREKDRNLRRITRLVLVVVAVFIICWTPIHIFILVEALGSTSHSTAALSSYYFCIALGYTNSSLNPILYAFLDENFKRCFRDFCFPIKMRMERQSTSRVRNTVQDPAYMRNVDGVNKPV
Sequence of Mu-type opioid receptor (P97266 whole entry): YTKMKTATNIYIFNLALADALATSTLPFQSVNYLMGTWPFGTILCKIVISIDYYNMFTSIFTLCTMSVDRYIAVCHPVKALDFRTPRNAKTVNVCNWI
Sequence of Delta-type opioid receptor (P32300 whole entry): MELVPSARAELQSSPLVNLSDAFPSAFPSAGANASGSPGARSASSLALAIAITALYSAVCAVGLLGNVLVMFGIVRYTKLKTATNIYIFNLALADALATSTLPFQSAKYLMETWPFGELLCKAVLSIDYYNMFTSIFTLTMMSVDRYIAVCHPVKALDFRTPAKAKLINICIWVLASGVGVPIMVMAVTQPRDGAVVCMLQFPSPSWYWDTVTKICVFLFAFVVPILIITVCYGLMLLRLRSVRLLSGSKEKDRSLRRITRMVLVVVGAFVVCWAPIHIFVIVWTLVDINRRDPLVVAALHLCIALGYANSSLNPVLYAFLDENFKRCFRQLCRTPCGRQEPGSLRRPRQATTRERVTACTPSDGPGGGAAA

As to `Oc1ccc2c3c1O[C@H]1c4[nH]c5ccccc5c4C[C@@]4(O)[C@@H](C2)N(CC2CC2)CC[C@]314` [NALTRINDOLE], the pKi was 7.83 in data set [1] and 7.47 on Mu-type opioid receptor. For the same compound, in data set [2], the logD turned out to be 2.41.

As to `O=C(O)CN1CCN(CCn2c3c(c4ccccc42)C[C@@]2(O)[C@H]4Cc5ccc(O)c6c5[C@@]2(CCN4CC2CC2)[C@@H]3O6)CCN(CC(=O)O)CCN(CC(=O)O)CC1`, the figures for the negative-log Ki (pKi) (in data set [1]; in data set [3]; on Mu-type opioid receptor) were 5.70, 8.31 and 5.76, respectively. The Ratio Ki in data set [4] is 357; in data set [5], 410.

Take `O=C(O)CN1CCN(CCCCCn2c3c(c4ccccc42)C[C@@]2(O)[C@H]4Cc5ccc(O)c6c5[C@@]2(CCN4CC2CC2)[C@@H]3O6)CCN(CC(=O)O)CCN(CC(=O)O)CC1`: the pKi in data set [1] was 7.58; in data set [3] it was 9.70; on Mu-type opioid receptor, 7.32. Also, the Ratio Ki in data set [4] was found to be 241; in data set [5], 131.
